Results reported in article PMC9586926, “An efflux-susceptible antibiotic-adjuvant with systemic efficacy against mouse infections” (Scientific Reports, 2022).
Where a SMILES comes first, the peptide text is derived from it. [ ]: non-standard residue; d: D form. The star is where a group is joined. 12Ado = NCCCCCCCCCCCC(=O)O; Decanoyl = CCCCCCCCCC(=O)*; Dab = NCC[C@H](N)C(=O)O

Assays:
[1] = […] S.C., mice plasma, UPLC-MS
Protocol: Animal procedures were reviewed and approved by the Institutional Animal Care and Use Committee (ethics no. IL-0800519, IL-0760711, IL-0550618, IL-0320320, IL-1270821) and performed in accordance with the “Guide for the Care and Use of Laboratory Animals”, published by the US National Research Council[70]. The study is reported in accordance with ARRIVE guidelines. All protocols employed 4–5-week-old male ICR mice, weighing 20–25 g (Envigo; Jerusalem, Israel). Mice were kept on a 12 h light/dark cycle and provided with food and water ad-libitum. At the designated experimental end-points mice were euthanized by means of CO2 asphyxiation. […]
To assess lipopeptides circulating concentrations, mice (N = 3 per group) were S.C. administered with lipopeptides solutions (0.2 ml), sacrificed at specified times afterwards and their blood was aseptically collected. […] 0.5 ml of the supernatant were diluted 2-folds with Milli-Q water and analyzed by UPLC-MS using a C18 column. Quantification was performed using a calibration-curve generated with similarly processed blood samples, initially spiked with known lipopeptide concentrations. […] Quantification was performed using a calibration-curve generated with fresh lipopeptide solutions of known concentrations prepared in Milli-Q water.

E. coli 25922 [2] = assay: Peritonitis-sepsis infection model in neutropenic mice; type: in vivo; settings: n = 10
Protocol: The study is reported in accordance with ARRIVE guidelines.
Lipopeptides potential application in monotherapy and/or combination-therapies was explored with two infection models. In the peritonitis-sepsis model, mice (n = 10 per group) were first rendered neutropenic by two intraperitoneal (I.P.) injections of 0.3 ml containing 150 mg/kg and 100 mg/kg cyclophosphamide, administered 4 days and 1 day before the experiment, respectively. […] Mice survival was recorded for up to 7 days. In a variant assay, bacteria in PBS (1.4 × 10^6) were pre-treated with 10 µM lipopeptides for 15 min, similarly administered, and mice survival was recorded for up to 3 days. In the urinary-tract infection (UTI) model, mice (N = 5 mice per group) were anesthetized by a single I.P. injection (0.2 ml) containing a mixture of ketamine (100 mg/kg) and xylazine (5 mg/kg). Following application of an analgesic 2% lidocaine gel on their penises, mice were infected intra-urethraly using a 24-gauge catheter with 1.2 × 10^8 CFU/mouse (0.05 ml) and treated with the vehicle control (S.C., 1 h post-infection), 2 mg/kg rifampin (oral gavage, immediately before anesthesia), 7.5 mg/kg q.i.d. lipopeptides (S.C., starting 1 h post-infection), or both. Mice were sacrificed 24 h post-infection, their bladder and kidneys aseptically excised, suspended in 5 ml of sterile PBS, homogenized for 3 min using a bench-top homogenizer, serially tenfold diluted in saline, plated on LB agar, and incubated over-night at 37 °C for enumeration.

RAW 264.7 = assay: Cytotoxicity, Alamar blue; type: cell-based, murine; settings: 24 h incubation, read-out: IC50 RAW 264.7 (50% inhibition of cells respiration)
Protocol: Cell lines used in this study included murine RAW 264.7 macrophages and human embryonic kidney HEK-293FT cells (ATCC, Biological Industries, Beit Haemek, Israel). Cells were grown in Dulbecco’s modified eagle medium (DMEM) containing […] glucose, L-glutamine, sodium bicarbonate and sodium pyruvate, supplemented with 10% fetal bovine serum and pen-strep, at 37 °C and 5% CO2.
Lipopeptides cytotoxicity was determined using fluorescent measurements of reduced resazurin. 2 × 10^4 cells were first cultured in 96-well plates over-night (final volume of 100 µl) at 37 °C and 5% CO2. Then, the medium was removed and cells were incubated for an additional 24 h with serial twofold dilutions of the lipopeptides in growth medium. Then, 10 µl of Alamar blue were added and plates were incubated for 3 h, after which fluorescence (excitation: 530 nm; emission: 590 nm) of the reduced resazurin was recorded (BioTek Instruments Synergy HT; Winooski, VT, USA).

A. baumannii = assay: MIC, broth microdilution; type: cell-based, Acinetobacter baumannii; settings: broth microdilution in LB, 18–24 h, 37 °C; n = 1 strain
From the text: Bacteria used in this study consisted of standard American Type Culture Collection (ATCC; Biological Industries, Beit Haemek, Israel) strains, clinically isolated (CI; Sourasky Medical Center, Tel Aviv, Israel) strains, as well as isogenic mutant strains. Gram-negative bacteria included Acinetobacter baumannii ATCC 19606; Escherichia coli ATCC 25922, 35218, CFT073, CI 14384, 16327, and the isogenic pair Ag100 (wild-type) and its efflux deficient mutant Ag100a (ΔacrAB); Klebsiella pneumoniae CI 1287, 224; Pseudomonas aeruginosa ATCC 27853, CI 1278, 8634; Salmonella enterica serovar Typhimurium ATCC 14028 (wild-type) and its isogenic efflux deficient mutant ΔacrAB. Bacteria were grown in Luria–Bertani broth (LB; 5 g/l NaCl, 5 g/l yeast extract, 10 g/l tryptone; pH = 7.0) at 37 °C with shaking. Over-night cultures were diluted 10-folds into fresh growth-medium and incubated at 37 °C with shaking until reaching mid-logarithmic phase. Then, bacterial concentrations were adjusted using O.D.600 nm measurements, and bacteria were subjected to the experimental procedures listed herein.
MIC was determined according to the broth microdilution method: antimicrobials were subjected to serial twofold dilutions in LB medium, and incubated with 5 × 10^5 CFU/ml of bacteria (final volume of 200 µl) for 18–24 h at 37 °C. Then, O.D.620 nm was measured (BioTek Instruments Synergy HT; Winooski, VT, USA), and the MIC was defined as the lowest antimicrobial concentration for which no increase in O.D.620 nm was evident, compared to the untreated control.

E. coli 25922 [3] = assay: Growth / time-kill kinetics; type: cell-based, Escherichia coli; settings: 10 µM C10BBc12B, 1 µg/ml erythromycin or 20 ng/ml rifampin alone
Protocol: Antimicrobials mode of action was determined according to the rate of bacterial killing. Varying concentrations of lipopeptides, antibiotics and combinations thereof were mixed in LB medium with 5 × 10^5 CFU/ml of bacteria (final volume of 1 ml) and incubated at 37 °C with shaking. At the designated time-points aliquots were serially tenfold diluted in saline, plated on LB agar, and incubated over-night at 37 °C for enumeration.

CCCCCCCCCC(=O)N[C@@H](CCN)C(=O)N[C@@H](CCN)C(=O)NCCCCCCCCCCCC(=O)N[C@@H](CCN)C(N)=O [C10BBc12B, decanoyl-bis.diaminobutyrate-aminododecanoyl-diaminobutyrate-amide] (Decanoyl-[Dab][Dab][12Ado][Dab]-NH2)
time with antibiotics potentiating concentrations (≥ 2.5 µg/ml) maintained [1]: > 2 h
time after which most lipopeptide cleared from the bloodstream ([1]; n = 3 per time point): ~ 180 min
survival rate, monotherapy (E. coli 25922 [2]; 1.7 × 10^6 CFU/mouse, […] C10BBc12B S.C. 1 h post-infection or 20 mg/kg rifampin oral gavage): 40%
efficacy, monotherapy, higher inoculum (E. coli 25922 [2]; 1.9 × 10^6 CFU/mouse, […] C10BBc12B S.C. or 20 mg/kg rifampin oral): virtually no efficacy
mice mortality after infection with bacteria pre-treated with lipopeptide (E. coli 25922 [2]; modified model, 1.4 × 10^6 CFU/mouse pre-treated 15 min with 10 µM in PBS, I.P., three days): delayed the onset of mice mortality and reduced the overall lethality rate
IC50 (RAW 264.7): > 50 µM
MIC A. baumannii (n=1) (A. baumannii): > 50 µM
effect on bacterial proliferation, individual agent (E. coli 25922 [3]): unable to significantly alter bacterial proliferation
